Experimental findings from ChEMBL document CHEMBL1127801, “3-(2-(3-Pyridinyl)thiazolidin-4-oyl)indoles, a novel series of platelet activating factor antagonists” (J Med Chem, 1994) are described below.

The subject of one assay is Mus musculus. The assay can be described thus: In vivo antagonist activity against PAF-Induced paw edema in the mouse. The format is functional.
For the next assay, the system named is Rattus norvegicus. The assay can be described thus: In vivo antagonist activity for PAF-Induced cutaneous vascular permeability in the rat. It is filed as functional.
For assay [1], the target named is Platelet-activating factor receptor (Oryctolagus cuniculus). The assay can be described thus: Functional inhibition of PAF-induced platelet degranulation.

A word on the ED50: it is the dose that gives a 50% effect, or the effect in half of the subjects. A high value points to a need for a large dose. As to `CN(C)C(=O)n1cc(C(=O)[C@@H]2CSC(c3cccnc3)N2)c2ccc(OCc3ccccc3)cc21.O=C(O)C(=O)O` (some centres undefined), the results for the ED50 in the assay on Mus musculus and with Rattus norvegicus were 0.079 mg/kg and 0.53 mg/kg, respectively.
For `CN(C)C(=O)n1cc(C(=O)[C@@H]2CSC(c3cccnc3)N2)c2ccc(F)cc21` (some centres undefined), the ED50 with Rattus norvegicus turned out to be 0.945 mg/kg.
Regarding `Cc1ccc2c(C(=O)[C@@H]3CSC(c4cccnc4)N3)cn(C(=O)OC(C)(C)C)c2c1` (some centres undefined), the ED50 in the assay with Mus musculus came to 1.19 mg/kg; with Rattus norvegicus, 5.22 mg/kg.
With `CCS(=O)(=O)n1cc(C(=O)[C@@H]2CSC(c3cccnc3)N2)c2ccc(OCc3ccccc3)cc21` (some centres undefined), the median effective dose (ED50) in the assay with Rattus norvegicus is 0.862 mg/kg.
In turn, `O=C(O)C(=O)O.O=C(c1cn(C(=O)OCc2ccccc2)c2ccccc12)[C@@H]1CSC(c2cccnc2)N1` (some centres undefined) registered an ED50 in the assay on Mus musculus of 1.79 mg/kg.
In turn, `CN(C)C(=O)n1cc(C(=O)[C@@H]2CSC(c3cccnc3)N2)c2ccc(OCc3ccc(F)cc3)cc21` (some centres undefined) displayed an ED50 in the assay on Rattus norvegicus of 0.355 mg/kg.
On the same count and under the same terms, for `CN(C)C(=O)n1cc(C(=O)[C@@H]2CSC(c3cccnc3)N2)c2ccc(C#Cc3ccccc3)cc21` (some centres undefined) the value was 0.885 mg/kg.
For the molecule `O=C(c1cn(Cc2ccccc2)c2ccccc12)[C@@H]1CSC(c2cccnc2)N1` (some centres undefined), the Kb in assay [1] came out at 22.1 nM.
With `O=C(c1c[nH]c2cc(OCc3ccccc3)ccc12)[C@@H]1CSC(c2cccnc2)N1` (some centres undefined), the results for the ED50 in the assay on Mus musculus and with Rattus norvegicus were 1.47 mg/kg and 0.526 mg/kg, respectively. This molecule yielded a Kb in assay [1] of 0.0929 nM.
On to `Cl.Cl.O=C(C1CSC(c2cccnc2)N1)n1ccc2c(Cl)cccc21` (centres undefined), for which the ED50 in the assay on Rattus norvegicus was found to be 15 mg/kg.
`CCCOc1c(OC)cc([C@@H]2CC[C@@H](c3cc(OC)c(OC)c(OC)c3)O2)cc1S(=O)(=O)CCO`: the figures for the ED50 with Mus musculus and in the assay on Rattus norvegicus were 11.5 mg/kg and 1.89 mg/kg, respectively.
As to `O=C(O)C(=O)O.O=C(c1c[nH]c2ccccc12)[C@@H]1CSC(c2cccnc2)N1` (some centres undefined), the 50% effective dose (ED50) with Mus musculus came to 5.32 mg/kg; in the assay on Rattus norvegicus it was 3.65 mg/kg.
In turn, `CN(C)C(=O)n1cc(C(=O)[C@@H]2CSC(c3cccnc3)N2)c2ccc(-c3cccnc3)cc21` (some centres undefined) gave an ED50 in the assay on Rattus norvegicus of 4.48 mg/kg.
Take `Cc1nnc2n1-c1sc3c(c1C(c1ccccc1Cl)=NC2)CC(C(=O)N1CCOCC1)C3` (centres undefined) [BEPAFANT]: the results for the ED50 in the assay on Mus musculus and in the assay on Rattus norvegicus were 0.459 mg/kg and 0.423 mg/kg, respectively.
The like results for `O=C(c1ccccc1)c1cccc(NC(=O)c2ccn3c2CSC3c2cccnc2)c1` (centres undefined) were, in that order, 4.07 mg/kg and 2.27 mg/kg.
As for `Cc1[nH]c2ccccc2c1C(=O)[C@@H]1CSC(c2cccnc2)N1` (some centres undefined), the Kb in assay [1] came out at 1.99 nM.
For `CN(C)C(=O)n1cc(C(=O)[C@@H]2CSC(c3cccnc3)N2)c2ccccc21` (some centres undefined), the ED50 with Mus musculus came out at 0.979 mg/kg; with Rattus norvegicus, 1.3 mg/kg. In assay [1], this molecule showed a Kb of 0.291 nM.
For `COc1ccc2c(C(=O)[C@@H]3CSC(c4cccnc4)N3)cn(C(=O)OC(C)(C)C)c2c1.O=C(O)C(=O)O` (some centres undefined), the ED50 in the assay with Rattus norvegicus was 1.9 mg/kg.
Turning to `O=C(c1cn(C(=O)N2CCOCC2)c2ccccc12)[C@@H]1CSC(c2cccnc2)N1` (some centres undefined), in the assay on Mus musculus, the 50% effect level (ED50) was put at a dose of 2.63 mg/kg.
Consider `CN(C(=O)n1cc(C(=O)[C@@H]2CSC(c3cccnc3)N2)c2ccccc21)c1ccccc1` (some centres undefined), for which the Kb in assay [1] came to 1.93 nM.
Regarding `O=C(C1CSC(c2cccnc2)N1)n1ccc2cc(OCc3ccccc3)ccc21` (centres undefined), the Kb in assay [1] was 1.95 nM.
The molecule `CN(C)C(=O)n1cc(C(=O)[C@@H]2CSC(c3cccnc3)N2)c2cccc(OCc3ccccc3)c21` (some centres undefined) had an ED50 with Mus musculus of 0.091 mg/kg.
As to `O=C(c1c[nH]c2cc(F)ccc12)[C@@H]1CSC(c2cccnc2)N1` (some centres undefined), the ED50 in the assay with Rattus norvegicus was determined as 2.69 mg/kg.
Turning to `CC(C)(C)OC(=O)n1cc(C(=O)[C@@H]2CSC(c3cccnc3)N2)c2ccccc21` (some centres undefined), the ED50 in the assay on Mus musculus stood at 0.372 mg/kg; in the assay on Rattus norvegicus it was 4.96 mg/kg. In assay [1], the Kb stood at 0.111 nM.
In the assay with Rattus norvegicus, `CN(C)C(=O)n1cc(C(=O)[C@@H]2CSC(c3cccnc3)N2)c2ccc(C(=O)c3ccccc3)cc21` (some centres undefined) gave an ED50 of 0.521 mg/kg.
With `O=C(c1cn(C(=O)c2ccc(Cl)cc2)c2ccccc12)[C@@H]1CSC(c2cccnc2)N1` (some centres undefined), it took a dose of 3.19 mg/kg to reach the 50% effect level with Rattus norvegicus (ED50).
`CN(C)C(=O)n1cc(C(=O)[C@@H]2CSC(c3cccnc3)N2)c2ccc(Oc3ccc(F)cc3)cc21` (some centres undefined) came in with an ED50 in the assay with Rattus norvegicus of 0.108 mg/kg.
Turning to `COc1cc(C(=O)c2cccc(NC(=O)[C@@H]3CSC(c4cccnc4)N3)c2)cc(OC)c1OC` (some centres undefined), the ED50 turned out to be 0.476 mg/kg in the assay with Mus musculus and 2.06 mg/kg in the assay on Rattus norvegicus. For the same molecule, the Kb in assay [1] worked out at 0.415 nM.
`CC(C)(C)OC(=O)n1cc(C(=O)[C@@H]2CSC(c3cccnc3)N2)c2ccc(OCc3ccccc3)cc21` (some centres undefined): the ED50 in the assay on Mus musculus amounted to 1.3 mg/kg; in the assay on Rattus norvegicus, 0.429 mg/kg. In assay [1], this molecule yielded a Kb of 1.19 nM.
In turn, `CC(C)(C)NC(=O)n1cc(C(=O)[C@@H]2CSC(c3cccnc3)N2)c2ccccc21` (some centres undefined) showed an ED50 in the assay on Rattus norvegicus of 6.28 mg/kg.
In the assay with Mus musculus, `Cc1c(C(=O)[C@@H]2CSC(c3cccnc3)N2)c2ccccc2n1C(=O)OC(C)(C)C.O=C(O)C(=O)O` (some centres undefined) showed an ED50 of 0.873 mg/kg.
Regarding `CNC(=O)n1cc(C(=O)[C@@H]2CSC(c3cccnc3)N2)c2ccccc21.O=C(O)C(=O)O.O=C(O)C(=O)O` (some centres undefined), the ED50 in the assay on Rattus norvegicus came to 1.68 mg/kg.
Turning to `O=C([C@@H]1CSC(c2cccnc2)N1)n1ccc2ccc(OCc3ccccc3)cc21` (some centres undefined), the Kb in assay [1] is 12 nM.
Consider `O=C(c1c[nH]c2cc(-c3ccccc3)ccc12)[C@@H]1CSC(c2cccnc2)N1` (some centres undefined), for which the ED50 in the assay on Mus musculus was 5.39 mg/kg; in the assay with Rattus norvegicus it was 2.3 mg/kg.
Take `O=C(O)C(F)(F)F.O=C(c1c[nH]c2c(OCc3ccccc3)cccc12)[C@@H]1CSC(c2cccnc2)N1` (some centres undefined): the figures for the ED50 in the assay on Mus musculus and in the assay on Rattus norvegicus were 6.98 mg/kg and 1.41 mg/kg, respectively. For the same molecule, the Kb in assay [1] was found to be 0.571 nM.
As for `O=C(c1c[nH]c2cc(Br)ccc12)[C@@H]1CSC(c2cccnc2)N1` (some centres undefined), in the assay with Rattus norvegicus, it took a dose of 1.07 mg/kg to reach the 50% effect level (ED50).
As to `CCN(CC)C(=O)n1cc(C(=O)[C@@H]2CSC(c3cccnc3)N2)c2ccccc21` (some centres undefined), the ED50 with Mus musculus turned out to be 0.52 mg/kg; in the assay on Rattus norvegicus, 0.616 mg/kg.
In the case of `Cc1nnc2n1-c1sc(CCC(=O)N3CCOCC3)cc1C(c1ccccc1Cl)=NC2` [APAFANT], the ED50 turned out to be 2.2 mg/kg in the assay with Mus musculus and 22.3 mg/kg with Rattus norvegicus.
The molecule `COc1ccc2c(C(=O)[C@@H]3CSC(c4cccnc4)N3)c[nH]c2c1` (some centres undefined) came in with an ED50 with Mus musculus of 3.7 mg/kg.
The molecule `CN(C)C(=O)n1cc(C(=O)[C@@H]2CSC(c3cccnc3)N2)c2ccc(-c3ccc(F)cc3)cc21` (some centres undefined) returned an ED50 in the assay on Rattus norvegicus of 0.76 mg/kg.
Consider `CN(C)C(=O)n1cc(C(=O)[C@@H]2CSC(c3cccnc3)N2)c2ccc(Cl)cc21` (some centres undefined), for which the 50% effect level in the assay with Rattus norvegicus (ED50) was put at a dose of 1.6 mg/kg.
On the same count and under the same terms, in the case of `CN(C)C(=O)Cn1cc(C(=O)[C@@H]2CSC(c3cccnc3)N2)c2ccccc21` (some centres undefined) it was 0.384 mg/kg.
`CC(C)(C)C(=O)n1cc(C(=O)[C@@H]2CSC(c3cccnc3)N2)c2ccccc21` (some centres undefined) yielded an ED50 in the assay with Mus musculus of 15.8 mg/kg.
For the molecule `COC(=O)n1cc(C(=O)[C@@H]2CSC(c3cccnc3)N2)c2ccccc21` (some centres undefined), the ED50 was determined as 1.97 mg/kg in the assay with Mus musculus and 5.19 mg/kg in the assay with Rattus norvegicus.
As for `O=C(c1cn(C(=O)N2CCOCC2)c2cc(OCc3ccccc3)ccc12)[C@@H]1CSC(c2cccnc2)N1` (some centres undefined), the ED50 with Mus musculus was 3.7 mg/kg; in the assay with Rattus norvegicus, 0.762 mg/kg.
For `Cc1ccc2c(c1)c(C(=O)[C@@H]1CSC(c3cccnc3)N1)c(C)n2C(=O)OC(C)(C)C.O=C(O)C(=O)O` (some centres undefined), it took a dose of 9.51 mg/kg to reach the 50% effect level with Rattus norvegicus (ED50).
For the molecule `O=C(c1ccccc1)c1cccc(NC(=O)[C@@H]2CSC(c3cccnc3)N2)c1` (some centres undefined), the ED50 with Mus musculus was 1.73 mg/kg; in the assay with Rattus norvegicus, 12.9 mg/kg. The molecule further displayed a Kb in assay [1] of 4.14 nM.
With `Cc1nnc2n1C1=C(C(c3ccccc3Cl)=NC2C)C2CCN(C(=O)C3CC3)CC2S1` (centres undefined), the ED50 in the assay on Mus musculus is 1.44 mg/kg; in the assay with Rattus norvegicus, 0.15 mg/kg.
Consider `CN(C)C(=O)n1cc(C(=O)[C@@H]2CSC(c3cccnc3)N2)c2ccc(-c3ccccc3)cc21` (some centres undefined), for which the ED50 in the assay on Mus musculus came out at 0.808 mg/kg; in the assay with Rattus norvegicus, 1.12 mg/kg.
Take `CCOC(=O)C1=C(c2ccc(-n3c(C)nc4cnccc43)cc2)NC(C)=C(C(=O)Nc2ccccn2)C1c1ccccc1Cl` (centres undefined): the 50% effect level in the assay on Rattus norvegicus (ED50) was put at a dose of 0.232 mg/kg.
Same read-out and setting: in the case of `O=C(c1c[nH]c2cc(OCc3ccc(F)cc3)ccc12)[C@@H]1CSC(c2cccnc2)N1` (some centres undefined) it was 0.273 mg/kg.
`CCS(=O)(=O)n1cc(C(=O)[C@@H]2CSC(c3cccnc3)N2)c2ccccc21` (some centres undefined) had a Kb in assay [1] of 1.59 nM.
